Data from patent US20150141336A1, “Pancreatic Peptide Compounds and Use” (Novo Nordisk A/S, priority 2012, published 2015).
Numbered stars: 1 amine (or outer) side, 2 acyl side, 3 side chain; on linkers, the order of the positions; unused ones are H or OH. Side chains are listed from the residue outwards. Peptide text beside a SMILES is read from it. * marks the point of attachment. C18 diacid = O=C(O)CCCCCCCCCCCCCCCCC(=O)*; γGlu = O=C(O)[C@H](CCC(=O)[*:2])N[*:1]; AEEA = NCCOCCOCC(=O)O

test: Assay (II) PK i.v. minipig, in vivo half-life; design: species or system Göttingen mini-pigs; conditions: male, Göttingen, minipig, iv, Half-life minipig, Assay (II)
Summary of the method: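 Male Göttingen mini-pigs (18–22 kg, n=5) received 6 nmol/kg i.v. via central catheter, formulated in 50 mM K2HPO4, 0.05% tween 80, pH 8.0. EDTA plasma sampled pre-dose to 240 h, quantified by TFC/LC/MS/MS (MRM, range 1-2000 nmol/l); half-life from non-compartmental analysis per animal.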

SMILES	half-life [h]
CC[C@H](C)[C@H](NC(=O)[C@H](Cc1ccc(O)cc1)NC(=O)[C@H](CCCNC(=N)N)NC(=O)[C@H](CCCNC(=N)N)NC(=O)[C@H](CC(C)C)NC(=O)[C@H](CC(=O)O)NC(=O)[C@H](C)NC(=O)[C@H](C)NC(=O)[C@H](Cc1ccc(O)cc1)NC(=O)[C@H](CCC(N)=O)NC(=O)[C@H](C)NC(=O)[C@H](CCSC)NC(=O)[C@H](CCC(N)=O)NC(=O)[C@H](CCC(=O)O)NC(=O)[C@H](CCCCNC(=O)COCCOCCNC(=O)COCCOCCNC(=O)CC[C@H](NC(=O)CCCCCCCCCCCCCCCCC(=O)O)C(=O)O)NC(=O)[C@@H](NC(=O)[C@H](C)NC(=O)[C@H](CC(N)=O)NC(=O)[C@H](CC(=O)O)NC(=O)CNC(=O)[C@@H]1CCCN1C(=O)[C@H](Cc1ccc(O)cc1)NC(=O)[C@@H](NC(=O)[C@@H]1CCCN1C(=O)[C@H](CCC(=O)O)NC(=O)[C@@H](N)CC(C)C)C(C)C)[C@@H](C)O)C(=O)N[C@@H](CC(N)=O)C(=O)N[C@@H](CCSC)C(=O)N[C@@H](CC(C)C)C(=O)N[C@H](C(=O)N[C@@H](CCCNC(=N)N)C(=O)N1CCC[C@H]1C(=O)N[C@@H](CCCNC(=N)N)C(=O)N[C@@H](Cc1ccc(O)cc1)C(N)=O)[C@@H](C)O [Compound BB] (H-LEPVYPGDNATK([AEEA-AEEA-γGlu-C18 diacid])EQMAQYAADLRRYINMLTRPRY-NH2; N-terminus and C-terminus assumed)	19
CC[C@H](C)[C@H](NC(=O)[C@H](Cc1ccc(O)cc1)NC(=O)[C@H](CCCNC(=N)N)NC(=O)[C@H](CCCNC(=N)N)NC(=O)[C@H](CC(C)C)NC(=O)[C@H](CC(=O)O)NC(=O)[C@H](C)NC(=O)[C@H](C)NC(=O)[C@H](Cc1ccc(O)cc1)NC(=O)[C@H](CCC(N)=O)NC(=O)[C@H](C)NC(=O)[C@H](CCSC)NC(=O)[C@H](CCC(N)=O)NC(=O)[C@H](CCC(=O)O)NC(=O)[C@@H]1CCCN1C(=O)[C@@H](NC(=O)[C@H](C)NC(=O)[C@H](CC(N)=O)NC(=O)[C@H](CC(=O)O)NC(=O)CNC(=O)[C@H](CCCCNC(=O)COCCOCCNC(=O)COCCOCCNC(=O)CC[C@H](NC(=O)CCCCCCCCCCCCCCCCC(=O)O)C(=O)O)NC(=O)[C@H](Cc1ccc(O)cc1)NC(=O)[C@@H](NC(=O)[C@@H]1CCCN1C(=O)[C@H](CCC(=O)O)NC(=O)[C@@H](N)CC(C)C)C(C)C)[C@@H](C)O)C(=O)N[C@@H](CC(N)=O)C(=O)N[C@@H](CCSC)C(=O)N[C@@H](CC(C)C)C(=O)N[C@H](C(=O)N[C@@H](CCCNC(=N)N)C(=O)N1CCC[C@H]1C(=O)N[C@@H](CCCNC(=N)N)C(=O)N[C@@H](Cc1ccc(O)cc1)C(N)=O)[C@@H](C)O [Compound BH]	10
CC[C@H](C)[C@H](NC(=O)[C@H](Cc1ccc(O)cc1)NC(=O)[C@H](CCCNC(=N)N)NC(=O)[C@H](CCCNC(=N)N)NC(=O)[C@H](CC(C)C)NC(=O)[C@H](CC(=O)O)NC(=O)[C@H](C)NC(=O)[C@H](C)NC(=O)[C@H](Cc1ccc(O)cc1)NC(=O)[C@H](CCC(N)=O)NC(=O)[C@H](C)NC(=O)[C@H](CCSC)NC(=O)[C@H](CCC(N)=O)NC(=O)[C@H](CCC(=O)O)NC(=O)[C@@H]1CCCN1C(=O)[C@@H](NC(=O)[C@H](C)NC(=O)[C@H](CC(N)=O)NC(=O)[C@H](CC(=O)O)NC(=O)CNC(=O)[C@@H]1CCCN1C(=O)[C@H](CCCCNC(=O)COCCOCCNC(=O)COCCOCCNC(=O)CC[C@H](NC(=O)CCCCCCCCCCCCCCCCC(=O)O)C(=O)O)NC(=O)[C@@H](NC(=O)[C@@H]1CCCN1C(=O)[C@H](CCC(=O)O)NC(=O)[C@@H](N)CC(C)C)C(C)C)[C@@H](C)O)C(=O)N[C@@H](CC(N)=O)C(=O)N[C@@H](CCSC)C(=O)N[C@@H](CC(C)C)C(=O)N[C@H](C(=O)N[C@@H](CCCNC(=N)N)C(=O)N1CCC[C@H]1C(=O)N[C@@H](CCCNC(=N)N)C(=O)N[C@@H](Cc1ccc(O)cc1)C(N)=O)[C@@H](C)O [Compound BI]	9

More lines, now with the values ahead:

half-life [h]	SMILES
16	CC[C@H](C)[C@H](NC(=O)[C@H](Cc1ccc(O)cc1)NC(=O)[C@H](CCCNC(=N)N)NC(=O)[C@H](CCCNC(=N)N)NC(=O)[C@H](CC(C)C)NC(=O)[C@H](CC(=O)O)NC(=O)[C@H](C)NC(=O)[C@H](C)NC(=O)[C@H](Cc1ccc(O)cc1)NC(=O)[C@H](CCC(N)=O)NC(=O)[C@H](C)NC(=O)[C@H](CCSC)NC(=O)[C@H](CCC(N)=O)NC(=O)[C@H](CCC(=O)O)NC(=O)[C@@H]1CCCN1C(=O)[C@H](CCCCNC(=O)COCCOCCNC(=O)COCCOCCNC(=O)CC[C@H](NC(=O)CCCCCCCCCCCCCCCCC(=O)O)C(=O)O)NC(=O)[C@H](C)NC(=O)[C@H](CC(N)=O)NC(=O)[C@H](CC(=O)O)NC(=O)CNC(=O)[C@@H]1CCCN1C(=O)[C@H](Cc1ccc(O)cc1)NC(=O)[C@@H](NC(=O)[C@@H]1CCCN1C(=O)[C@H](CCC(=O)O)NC(=O)[C@@H](N)CC(C)C)C(C)C)C(=O)N[C@@H](CC(N)=O)C(=O)N[C@@H](CCSC)C(=O)N[C@@H](CC(C)C)C(=O)N[C@H](C(=O)N[C@@H](CCCNC(=N)N)C(=O)N1CCC[C@H]1C(=O)N[C@@H](CCCNC(=N)N)C(=O)N[C@@H](Cc1ccc(O)cc1)C(N)=O)[C@@H](C)O [Compound BC] (H-LEPVYPGDNAK([AEEA-AEEA-γGlu-C18 diacid])PEQMAQYAADLRRYINMLTRPRY-NH2; N-terminus and C-terminus assumed)
17	CC[C@H](C)[C@H](NC(=O)[C@H](Cc1ccc(O)cc1)NC(=O)[C@H](CCCNC(=N)N)NC(=O)[C@H](CCCNC(=N)N)NC(=O)[C@H](CC(C)C)NC(=O)[C@H](CC(=O)O)NC(=O)[C@H](C)NC(=O)[C@H](C)NC(=O)[C@H](Cc1ccc(O)cc1)NC(=O)[C@H](CCC(N)=O)NC(=O)[C@H](C)NC(=O)[C@H](CCSC)NC(=O)[C@H](CCC(N)=O)NC(=O)[C@H](CCC(=O)O)NC(=O)[C@@H]1CCCN1C(=O)[C@@H](NC(=O)[C@H](CCCCNC(=O)COCCOCCNC(=O)COCCOCCNC(=O)CC[C@H](NC(=O)CCCCCCCCCCCCCCCCC(=O)O)C(=O)O)NC(=O)[C@H](CC(N)=O)NC(=O)[C@H](CC(=O)O)NC(=O)CNC(=O)[C@@H]1CCCN1C(=O)[C@H](Cc1ccc(O)cc1)NC(=O)[C@@H](NC(=O)[C@@H]1CCCN1C(=O)[C@H](CCC(=O)O)NC(=O)[C@@H](N)CC(C)C)C(C)C)[C@@H](C)O)C(=O)N[C@@H](CC(N)=O)C(=O)N[C@@H](CCSC)C(=O)N[C@@H](CC(C)C)C(=O)N[C@H](C(=O)N[C@@H](CCCNC(=N)N)C(=O)N1CCC[C@H]1C(=O)N[C@@H](CCCNC(=N)N)C(=O)N[C@@H](Cc1ccc(O)cc1)C(N)=O)[C@@H](C)O [Compound BD]
17	CC[C@H](C)[C@H](NC(=O)[C@H](Cc1ccc(O)cc1)NC(=O)[C@H](CCCNC(=N)N)NC(=O)[C@H](CCCNC(=N)N)NC(=O)[C@H](CC(C)C)NC(=O)[C@H](CC(=O)O)NC(=O)[C@H](C)NC(=O)[C@H](C)NC(=O)[C@H](Cc1ccc(O)cc1)NC(=O)[C@H](CCC(N)=O)NC(=O)[C@H](C)NC(=O)[C@H](CCSC)NC(=O)[C@H](CCC(N)=O)NC(=O)[C@H](CCC(=O)O)NC(=O)[C@@H]1CCCN1C(=O)[C@@H](NC(=O)[C@H](C)NC(=O)[C@H](CC(N)=O)NC(=O)[C@H](CCCCNC(=O)COCCOCCNC(=O)COCCOCCNC(=O)CC[C@H](NC(=O)CCCCCCCCCCCCCCCCC(=O)O)C(=O)O)NC(=O)CNC(=O)[C@@H]1CCCN1C(=O)[C@H](Cc1ccc(O)cc1)NC(=O)[C@@H](NC(=O)[C@@H]1CCCN1C(=O)[C@H](CCC(=O)O)NC(=O)[C@@H](N)CC(C)C)C(C)C)[C@@H](C)O)C(=O)N[C@@H](CC(N)=O)C(=O)N[C@@H](CCSC)C(=O)N[C@@H](CC(C)C)C(=O)N[C@H](C(=O)N[C@@H](CCCNC(=N)N)C(=O)N1CCC[C@H]1C(=O)N[C@@H](CCCNC(=N)N)C(=O)N[C@@H](Cc1ccc(O)cc1)C(N)=O)[C@@H](C)O [Compound BF]
